According to publication PMC8790893 (Chemical Science, 2021):
Read-outs that look alike come from different tables or passages of the source. Blank lines part the entries; values can stand above or below the compound they belong to.

Experiments:
RORγt-LBD (262-518) = molecular target: T1, RORγt-LBD (262-518) (Homo sapiens, UniProt P51449); format: biochemical
T1 sequence (P51449 262-518): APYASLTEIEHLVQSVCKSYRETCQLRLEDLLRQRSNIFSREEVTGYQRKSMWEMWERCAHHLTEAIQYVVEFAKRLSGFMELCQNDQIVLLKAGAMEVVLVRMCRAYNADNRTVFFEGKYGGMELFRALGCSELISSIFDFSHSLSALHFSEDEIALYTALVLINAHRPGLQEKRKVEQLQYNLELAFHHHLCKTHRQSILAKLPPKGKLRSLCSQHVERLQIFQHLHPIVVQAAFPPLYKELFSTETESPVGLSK

RORγt-LBD [1] = molecular target: T2, RORγt-LBD (Homo sapiens, UniProt P51449); assay: Intrinsic fluorescence-quenching based assay; format: binding; settings: RORγt-LBD 30 μM; compound 0-50 μM; excitation 280 nm
T2 sequence (P51449 262-518): T1 sequence (P51449 262-518)

RORγt-LBD [2] = molecular target: T2, RORγt-LBD; assay: Isothermal titration calorimetry; format: binding
RORγt-LBD-SRC2.2 [3] = molecular target: T3, RORγt-LBD-SRC2.2 (Homo sapiens, UniProt P51449); assay: Drug affinity responsive target stability; format: binding; settings: 60 μM protein, 40 °C, 10 min, dose-dependent
T3 sequence (P51449 with tags, fused parts or gaps): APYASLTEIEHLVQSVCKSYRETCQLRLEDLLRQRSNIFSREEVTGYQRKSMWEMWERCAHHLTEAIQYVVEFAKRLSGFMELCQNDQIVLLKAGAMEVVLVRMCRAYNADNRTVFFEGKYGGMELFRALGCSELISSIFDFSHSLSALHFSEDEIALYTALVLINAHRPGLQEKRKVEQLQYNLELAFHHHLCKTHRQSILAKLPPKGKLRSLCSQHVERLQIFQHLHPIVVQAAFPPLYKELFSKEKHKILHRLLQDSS

RORγt in HEK293T cells = molecular target: T4, RORγt in HEK293T cells (Homo sapiens, UniProt P51449); assay: Cellular thermal shift assay; format: cell-based; settings: HEK293T cells exogenously expressing RORγt, 60 μM, 2 h
T4 sequence (P51449 1-497 isoform P51449-2): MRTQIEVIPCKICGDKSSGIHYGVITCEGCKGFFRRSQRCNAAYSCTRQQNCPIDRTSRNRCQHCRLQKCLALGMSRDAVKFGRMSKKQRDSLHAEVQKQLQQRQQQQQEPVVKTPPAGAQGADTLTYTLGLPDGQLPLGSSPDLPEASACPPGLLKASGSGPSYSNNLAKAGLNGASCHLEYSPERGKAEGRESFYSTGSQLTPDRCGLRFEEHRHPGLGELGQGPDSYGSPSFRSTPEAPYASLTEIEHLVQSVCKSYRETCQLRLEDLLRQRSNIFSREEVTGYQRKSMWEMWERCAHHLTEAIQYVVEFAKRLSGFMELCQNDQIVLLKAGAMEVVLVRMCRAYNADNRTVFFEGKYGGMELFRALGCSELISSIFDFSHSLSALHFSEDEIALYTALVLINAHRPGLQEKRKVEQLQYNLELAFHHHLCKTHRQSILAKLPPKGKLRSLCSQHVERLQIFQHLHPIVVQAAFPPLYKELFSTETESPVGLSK

[4] = system: experimental autoimmune encephalomyelitis (EAE); assay: MOG35-55-induced EAE: clinical signs, disease onset, body weight; format: in vivo, female C57BL/6 mice; settings: EAE mice; for EAE induced body weight loss: 50 mg kg^−1 orally every day from day 12; for mean disease onset date: 50 mg kg^−1 orally every day from day 12, n = 8
TH17 cells = assay: Flow cytometry of spleen cells of EAE mice; format: in vivo; settings: CD4 and IL-17 dual-staining
[5] = system: blood–brain barrier (BBB); assay: In vivo imaging of brain inflammation; settings: EAE mice, day 9 post-administration
IL-17A = assay: ELISA of IL-17A in spinal cord and brain supernatant; format: in vivo; settings: EAE mice
spinal cord white matter = assay: Histochemical analysis of spinal cords; format: in vivo; settings: EAE mice, 50 mg kg^−1 orally, LFB and H&E staining
5-lipoxygenase = settings: read-out: IC50, 5-lipoxygenase; cited from earlier work
AR [6] = settings: read-out: IC50 in AR competitive binding assay; cited from earlier work
AR [7] = settings: read-out: IC50 in AR transcriptional assay; cited from earlier work
[8] = system: DOCA-salt-induced organ damage; settings: rats; by blocking the activation of TH17 cells; cited from earlier work
prostate cancer = settings: cited from earlier work
human RORγt = molecular target: T5, human RORγt (Homo sapiens, UniProt P51449); assay: RORγt-GAL4 dual-luciferase reporter assay; format: cell-based
T5 sequence (P51449 97-516): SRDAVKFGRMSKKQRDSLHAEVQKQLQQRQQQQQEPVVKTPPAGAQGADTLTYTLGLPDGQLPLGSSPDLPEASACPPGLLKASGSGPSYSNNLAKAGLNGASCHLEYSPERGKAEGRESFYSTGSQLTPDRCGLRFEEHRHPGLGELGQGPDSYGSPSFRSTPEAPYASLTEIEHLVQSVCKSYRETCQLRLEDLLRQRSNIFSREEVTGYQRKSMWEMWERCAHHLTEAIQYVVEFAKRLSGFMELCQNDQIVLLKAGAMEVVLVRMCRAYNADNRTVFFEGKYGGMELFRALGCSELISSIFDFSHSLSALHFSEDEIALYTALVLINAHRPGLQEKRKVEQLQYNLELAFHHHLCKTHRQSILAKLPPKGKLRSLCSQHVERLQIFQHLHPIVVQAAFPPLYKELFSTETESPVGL

RORγt-LBD-SRC2.2 [9] = molecular target: T3, RORγt-LBD-SRC2.2; assay: Co-crystallization and X-ray structure determination; settings: resolution 1.99 Å
sigma 1 receptor = settings: cited from earlier work

- IC50 (RORγt-LBD (262-518)): 280 nM
- Kd (RORγt-LBD [2]): 1060 nM
- proteolysis of RORγt-LBD-SRC2.2 by pronase E (RORγt-LBD-SRC2.2 [3]): clearly decreased
- Tm values of RORγt (CETSA) (RORγt in HEK293T cells): significantly increased
SMILES: CC1(C)CC[C@]2(C(=O)O)CC[C@]3(C)C(=CC[C@@H]4[C@@]5(C)CCC(=O)C(C)(C)[C@@H]5CC[C@]43C)[C@@H]2C1 [oleanonic acid, Oleanonic Acid]
- fluorescence quenching of RORγt-LBD (RORγt-LBD [1]): dose-dependently induced fluorescence quenching
- EAE induced body weight loss [4]: significantly reversed
- mean disease onset date [4]: 15.3 ± 0.2 days
- frequency of pro-inflammatory TH17 cells in the spleen (TH17 cells): reduced frequency
- EAE-induced BBB disruption (brain BSA-Cy5.5 accumulation) [5]: remitted the EAE-induced BBB disruption obviously
- IL-17A protein expression in brains and spinal cords (IL-17A): effectively reduced
- immune cell infiltrations in white matter of spinal cords (spinal cord white matter): reduced

SMILES: Oc1ccc(/C=C/c2cc(O)cc(O)c2)cc1 [resveratrol]
- IC50 (5-lipoxygenase): 4900 nM

SMILES: C[C@]12CC[C@H](O)CC1=CC[C@@H]1[C@@H]2CC[C@]2(C)C(c3cccnc3)=CC[C@@H]12 [abiraterone, Abiraterone]
- IC50 (AR [6]): 7600 nM
- IC50 (AR [7]): 9400 nM

SMILES: CC(=O)S[C@@H]1CC2=CC(=O)CC[C@]2(C)[C@H]2CC[C@@]3(C)[C@@H](CC[C@@]34CCC(=O)O4)[C@H]12 [Spironolactone]
- effect on DOCA-salt-induced organ damage [8]: decrease DOCA-salt-induced organ damage
- effect on the incidence of prostate cancer (prostate cancer): reduce the incidence of prostate cancer

- IC50 (human RORγt): 100 nM
- IC50 (RORγt-LBD (262-518)): 10 nM
- Kd (RORγt-LBD [2]): 3040 nM
- proteolysis of RORγt-LBD-SRC2.2 by pronase E (RORγt-LBD-SRC2.2 [3]): clearly decreased
- Tm values of RORγt (CETSA) (RORγt in HEK293T cells): significantly increased
SMILES: C[C@H]1[C@H](C)CC[C@]2(C(=O)O)CC[C@]3(C)C(=CC[C@@H]4[C@@]5(C)CCC(=O)C(C)(C)[C@@H]5CC[C@]43C)[C@H]12 [ursonic acid, Ursonic Acid]
- fluorescence quenching of RORγt-LBD (RORγt-LBD [1]): dose-dependently induced fluorescence quenching
- binding site in the crystal structure (PDB code: 6J3N) (RORγt-LBD-SRC2.2 [9]): buried in the canonical orthosteric ligand pocket
- EAE induced body weight loss [4]: significantly reversed
- mean disease onset date [4]: 17.3 ± 0.5 days
- frequency of pro-inflammatory TH17 cells in the spleen (TH17 cells): reduced frequency
- EAE-induced BBB disruption (brain BSA-Cy5.5 accumulation) [5]: remitted the EAE-induced BBB disruption obviously
- IL-17A protein expression in brains and spinal cords (IL-17A): effectively reduced
- immune cell infiltrations in white matter of spinal cords (spinal cord white matter): reduced

SMILES: CCN(CCO)CCCC(C)Nc1ccnc2cc(Cl)ccc12 (centres unmarked) [hydroxychloroquine]
- pKi, sigma 1 receptor (sigma 1 receptor): 6.9

SMILES: CCN(CC)CCCC(C)Nc1ccnc2cc(Cl)ccc12 (centres unmarked) [chloroquine]
- pKi, sigma 1 receptor (sigma 1 receptor): 7.1

SMILES: Oc1cc(O)cc(/C=C/c2ccc(O)c(O)c2)c1 [piceatannol]
- IC50 (5-lipoxygenase): 240 nM
